Measurements reported in patent US5189159A, “8a-AZA-8a-homoerythromycin cyclic iminoethers” (Merck & Co., Inc., priority 1992, dated 1993).
Values after ≈ are worked out from the molar mass of the structure shown.

Tests used:
[1] = test system: Staphylococcus haemolyticus MB 5412; assay: MIC, liquid turbidimetric microtiter method; format: cell-based; details: MB5412, broth media
Description: (§1) The compounds of formula (II) show antibacterial activity against a range of aerobic Gram positive and negative bacteria, as shown in the following Table. The assay employs a liquid turbidimetric microtiter method for determination of the minimum inhibitory concentration (MIC) in broth media. […] The MIC is generally not an absolute value but rather a concentration range that falls within a two-fold dilution limit. Generally twelve two-fold dilutions of the test compound are employed with the initial concentration set at 128 mcg/ml.

[2] = test system: Streptococcus pyogenes MB 5406; assay: MIC, liquid turbidimetric microtiter method; format: cell-based; details: MB5406, broth media
Description: as §1

[3] = test system: Escherichia coli MB 2884; assay: MIC, liquid turbidimetric microtiter method; format: cell-based; details: MB2884, broth media
Description: as §1

[4] = test system: Pseudomonas stutzeri MB 1231; assay: MIC, liquid turbidimetric microtiter method; format: cell-based; details: Stutzerimonas stutzeri, MB1231, broth media
Description: as §1

[5] = test system: Klebsiella pneumoniae MB 4005; assay: MIC, liquid turbidimetric microtiter method; format: cell-based; details: MB4005, broth media
Description: as §1

[6] = test system: Enterococcus faecalis MB 5407; assay: MIC, liquid turbidimetric microtiter method; format: cell-based; details: MB5407, broth media
Description: as §1

[7] = test system: Streptococcus agalactiae CL 1343; assay: MIC, liquid turbidimetric microtiter method; format: cell-based; details: CL1343, broth media
Description: as §1

[8] = test system: Staphylococcus aureus MB 2865; assay: MIC, liquid turbidimetric microtiter method; format: cell-based; details: MB2865, broth media
Description: as §1

[9] = test system: Escherichia coli MB 4926; assay: MIC, liquid turbidimetric microtiter method; format: cell-based; details: MB4926, broth media
Description: as §1

[10] = test system: Steptococcus pneumoniae CL 2883; assay: MIC, liquid turbidimetric microtiter method; format: cell-based; details: broth media
Description: as §1

[11] = test system: Streptococcus viridans CL 2943; assay: MIC, liquid turbidimetric microtiter method; format: cell-based; details: CL2943, broth media
Description: as §1

[12] = test system: Enterococcus faecium MB 5416; assay: MIC, liquid turbidimetric microtiter method; format: cell-based; details: MB5416, broth media
Description: as §1

[13] = test system: Streptococcus pyogenes MB 2874; assay: MIC, liquid turbidimetric microtiter method; format: cell-based; details: MB2874, broth media
Description: as §1

[14] = test system: Staphylococcus epidermidis MB 5414; assay: MIC, liquid turbidimetric microtiter method; format: cell-based; details: MB5414, broth media
Description: as §1

[15] = test system: Yersinia enterocoltica CL 1598; assay: MIC, liquid turbidimetric microtiter method; format: cell-based; details: CL1598, broth media
Description: as §1

[16] = isomerization / stability of 9,12-epoxy isomers; format: physicochemical
Description: As previously noted, Beckmann rearrangement of oxime (III) under anhydrous conditions leads to a product mixture comprised of the 6,9- and 9,12-bridged iminoethers (VI) and (VII). The 9,12-bridged product, which is formed by internal trapping of the intermediate nitrilium species by the hydroxyl group at C-12, is initially isolated as a mixture of major and minor forms that are isomeric about the imino double bond. The initial mixture of isomers equilibrates at room temperature, both in solution or on storing as a crude foam, to approximately a 1:1 mixture of isomers. The first-formed, major isomer can be isolated from the mixture by crystallization from nitromethane solution.
A solution of the mixture of 9,12-epoxy isomers in nitromethane (2 mL) deposited a large, crystalline mass on standing at room temperature for several days. The mixture was diluted with nitromethane (10 mL) and filtered to remove the solid portion, which was washed with nitromethane (2 mL) and dried under high vacuum. The white solid thus obtained (0.9 g) was shown by ^1 H NMR spectroscopy to be the major 9,12-epoxy isomer which is initially formed in the Beckmann rearrangement reaction.

Structure (SMILES) | MIC [1] [µg/mL] | MIC [2] [µg/mL] | MIC [3] [µg/mL] | MIC [4] [µg/mL] | MIC [5] [µg/mL] | MIC [6] [µg/mL] | MIC [7] [µg/mL] | MIC [8] [µg/mL] | MIC [9] [µg/mL] | MIC [10] [µg/mL] | MIC [11] [µg/mL] | MIC [12] [µg/mL] | MIC [13] [µg/mL] | MIC [14] [µg/mL] | MIC [15] [µg/mL] | solid state stability [16]
CC[C@H]1OC(=O)[C@H](C)[C@@H](O[C@H]2C[C@@](C)(OC)[C@@H](O)[C@H](C)O2)[C@H](C)[C@@H](O[C@@H]2O[C@H](C)C[C@H](N(C)C)[C@H]2O)[C@@]2(C)C[C@@H](C)N=C(O2)[C@H](C)[C@@H](O)[C@]1(C)O [(VI), 9-Deoxo-6-deoxy-6,9-epoxy-8a,9-didehydro-8a-aza-8a-homoerythromycin A] | 8 (≈ 10.9 µM) | 128 (≈ 175 µM) | 128 (≈ 175 µM) | 0.5 (≈ 0.684 µM) | > 128 | 32 (≈ 43.8 µM) | 1 (≈ 1.37 µM) | 16 (≈ 21.9 µM) | 8 (≈ 10.9 µM) | 0.5 (≈ 0.684 µM) | 16 (≈ 21.9 µM) | 8 (≈ 10.9 µM) | 1 (≈ 1.37 µM) | 32 (≈ 43.8 µM) | 128 (≈ 175 µM) | –
CC[C@H]1OC(=O)[C@H](C)[C@@H](O[C@H]2C[C@@](C)(OC)[C@@H](O)[C@H](C)O2)[C@H](C)[C@@H](O[C@@H]2O[C@H](C)C[C@H](N(C)C)[C@H]2O)[C@](C)(O)C[C@@H](C)N=C2O[C@@]1(C)[C@H](O)[C@H]2C [(VII), 9-Deoxo-12-deoxy-9,12-epoxy-8a,9-didehydro-8a-aza-8a-homoerythromycin A] | 32 (≈ 43.8 µM) | > 128 | 128 (≈ 175 µM) | 2 (≈ 2.74 µM) | > 128 | > 128 | 4 (≈ 5.47 µM) | 16 (≈ 21.9 µM) | 32 (≈ 43.8 µM) | 4 (≈ 5.47 µM) | 4 (≈ 5.47 µM) | 16 (≈ 21.9 µM) | 2 (≈ 2.74 µM) | 16 (≈ 21.9 µM) | – | –
CC[C@H]1OC(=O)[C@H](C)[C@@H](O[C@H]2C[C@@](C)(OC)[C@@H](O)[C@H](C)O2)[C@H](C)[C@@H](O[C@@H]2O[C@H](C)C[C@H](N(C)C)[C@H]2O)[C@](C)(O)C[C@@H](C)N=C2O[C@@]1(C)[C@H](O)[C@H]2C (single isomer, unassigned; isomer 9) [crystalline isomer, 9-deoxo-12-deoxy-9,12-epoxy-8a,9-didehydro-8a-aza-8a-homoerythromycin A] | – | – | – | – | – | – | – | – | – | – | – | – | – | – | – | stable in the solid state
